The values that follow are results of earlier work, collected in patent publication US10413512B2, “Nicotine-containing granulate” (priority 2008, dated 2019).

For data set [1] the following is noted: base form.
The conditions of data set [2]: oral administration.
The conditions of data set [3]: in vivo.

As for `CN1CCC[C@H]1c1cccnc1` [Nicotine, (S)-3-(1-Methyl-2-pyrrolidinyl)pyridine], in data set [1], the miscibility with water result was “miscible with water”. Moreover, the oral bioavailability result in data set [2] is listed as “about 30%”. The “half life in the body” value in data set [3] was “around two”.
